From patent US10745401B2, “Condensed lactam derivative” (Sumitomo Dainippon Pharma Co., Ltd., priority 2018, dated 2020) come the findings set out here.

Data set [1] in a line: Test 4: metabolic stability test in human hepatic microsome. The data set is classed as in vitro ADME. The following applies: 0.1 mg/mL microsome, 0.1 μmol/L compound, 37° C., 30 minutes. In outline: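 Compound at 0.1 μmol/L incubated 30 min at 37° C with human liver microsomes (0.1 mg/mL) and NADPH (3.2 mmol/L) in 25 mmol/L phosphate buffer, pH 7.4. Residual compound measured by LC-MS; stability (mL/min/mg protein) = −LN(residual ratio)/30/0.1.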

Data set [2] addresses human D2 receptor (Homo sapiens (Human), UniProt P14416). Description: Test 1: binding activity for human D2 receptor ([3H]Spiperone, CHO cell membrane fraction). The following applies: for Ki: human D2 receptor, [3H]Spiperone; for D2 Ki/5-HT1A Ki / D2 Ki/5-HT2A Ki: selectivity ratio. In outline:
(§1)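 CHO-cell membranes with [3H]ketanserin (5-HT2A) or [3H]spiperone (D2) were incubated with compound for 60 min at room temperature, then filtered, and bound radioactivity was counted by scintillation. Ki = IC50/(1+S/Kd), with ligand Kd from saturation binding on the same membranes.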

Data set [3] addresses T1, human 5-HT2A receptor (Homo sapiens (Human), UniProt P28223). Description: Test 1: binding activity for human 5-HT2A receptor ([3H]Ketanserin, CHO cell membrane fraction). In outline: as §1
Data set [4] concerns the target T2, human 5-HT1A receptor (Homo sapiens (Human), UniProt P08908). Description: Test 2: agonist activity for human 5-HT1A receptor ([35S]GTPγS binding). The class given is biochemical. The following applies: for EC50: [35S]GTPγS binding, concentration at which half the activity of Emax was obtained; for Emax at 10 µM: agonist activity in the presence of 10 μM of compound, relative to 100 μmol/L 5-HT. The essentials: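 Membranes from CHO cells expressing human 5-HT1A incubated with compound, GDP-containing buffer and [35S]GTPγS for 60 min at room temperature. Bound radioactivity collected by glass-fibre filtration and counted by liquid scintillation; agonist activity derived from a formula.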

Data set [5] concerns the target T1, human 5-HT2A receptor. The data set is described as follows: Test 3: antagonist activity for human 5-HT2A receptor (aequorin luminescence, CHO-K1 cells). The data set is classed as cell-based. The following applies: CHO-K1 cells, 1 nmol/L 5-HT. In outline:
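CHO-K1 cells transiently co-expressing aequorin, Gα16 and receptor; compound in DMSO added and luminescence recorded on FDSS/μCELL.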

In data set [6] the target is hERG channel (Homo sapiens (Human), UniProt Q12809). Description: Test 6-1: inhibitory activity for hERG channel (auto patch clamp, Qpatch). The data set is classed as cell-based. The following applies: for IC50: whole cell auto patch clamp, hERG-CHO cells, read-out: hERG inhibition IC50; for hERG inhibition IC50 (nmol/L)/5-HT1A Ki (nmol/L): ratio of hERG IC50 to 5-HT1A Ki; for hERG inhibition IC50 (nmol/L)/5-HT2A Ki (nmol/L): ratio of hERG IC50 to 5-HT2A Ki. In outline: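 Whole-cell patch clamp on an automated system using CHO cells stably expressing human hERG (IKr); 15 s pulse interval. Four increasing compound concentrations applied cumulatively; mean peak tail current from last 3 stimulations per concentration used. IC50 from inhibition versus pre-compound current, fitted by Hill equation.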
hERG channel, sequence (Q12809 whole entry): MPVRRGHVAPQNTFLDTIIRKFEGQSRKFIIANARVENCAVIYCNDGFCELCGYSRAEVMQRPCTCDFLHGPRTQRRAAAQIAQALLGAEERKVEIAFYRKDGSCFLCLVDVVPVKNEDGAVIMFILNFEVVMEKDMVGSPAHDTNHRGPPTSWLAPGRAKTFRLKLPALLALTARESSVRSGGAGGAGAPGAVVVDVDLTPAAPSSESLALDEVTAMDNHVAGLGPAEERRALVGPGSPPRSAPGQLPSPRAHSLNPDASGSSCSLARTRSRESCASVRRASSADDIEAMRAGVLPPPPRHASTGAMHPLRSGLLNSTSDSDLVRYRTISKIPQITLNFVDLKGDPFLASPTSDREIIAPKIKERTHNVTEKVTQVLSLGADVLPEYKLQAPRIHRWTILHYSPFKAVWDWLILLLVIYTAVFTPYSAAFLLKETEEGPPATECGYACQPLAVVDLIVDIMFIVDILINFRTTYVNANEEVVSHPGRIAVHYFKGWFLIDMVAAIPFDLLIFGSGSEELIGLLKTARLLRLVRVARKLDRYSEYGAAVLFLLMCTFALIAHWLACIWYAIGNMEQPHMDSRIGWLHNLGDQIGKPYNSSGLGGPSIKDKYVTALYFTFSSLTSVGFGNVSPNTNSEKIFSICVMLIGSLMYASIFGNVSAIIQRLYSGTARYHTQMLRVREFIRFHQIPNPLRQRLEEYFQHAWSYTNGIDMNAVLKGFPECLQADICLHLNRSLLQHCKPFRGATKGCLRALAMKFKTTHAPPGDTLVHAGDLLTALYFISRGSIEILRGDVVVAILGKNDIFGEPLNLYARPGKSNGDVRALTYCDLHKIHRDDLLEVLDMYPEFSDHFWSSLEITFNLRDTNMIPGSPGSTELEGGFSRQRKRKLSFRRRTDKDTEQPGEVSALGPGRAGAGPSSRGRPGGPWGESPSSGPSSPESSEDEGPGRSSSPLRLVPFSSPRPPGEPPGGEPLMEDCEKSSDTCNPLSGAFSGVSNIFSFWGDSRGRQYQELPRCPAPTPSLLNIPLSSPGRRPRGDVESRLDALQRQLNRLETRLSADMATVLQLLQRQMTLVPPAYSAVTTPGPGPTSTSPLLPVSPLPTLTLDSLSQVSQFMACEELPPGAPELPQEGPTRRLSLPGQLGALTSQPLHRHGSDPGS

In data set [7] the target is T2, human 5-HT1A receptor. The data set is described as follows: Test 1: binding activity for human 5-HT1A receptor ([3H]8-OH-DPAT, CHO cell membrane fraction). In outline:
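Membranes incubated with [3H]8-OH-DPAT and compound for 60 min at room temperature, then filtered on polyethylenimine-coated glass-fibre plates and counted by liquid scintillation. IC50 from Hill analysis; Ki = IC50/(1+S/Kd), Kd from saturation binding on the same membranes.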

A value given as a limit tells only on which side of the number the result lay.

T1 sequence (P28223 whole entry): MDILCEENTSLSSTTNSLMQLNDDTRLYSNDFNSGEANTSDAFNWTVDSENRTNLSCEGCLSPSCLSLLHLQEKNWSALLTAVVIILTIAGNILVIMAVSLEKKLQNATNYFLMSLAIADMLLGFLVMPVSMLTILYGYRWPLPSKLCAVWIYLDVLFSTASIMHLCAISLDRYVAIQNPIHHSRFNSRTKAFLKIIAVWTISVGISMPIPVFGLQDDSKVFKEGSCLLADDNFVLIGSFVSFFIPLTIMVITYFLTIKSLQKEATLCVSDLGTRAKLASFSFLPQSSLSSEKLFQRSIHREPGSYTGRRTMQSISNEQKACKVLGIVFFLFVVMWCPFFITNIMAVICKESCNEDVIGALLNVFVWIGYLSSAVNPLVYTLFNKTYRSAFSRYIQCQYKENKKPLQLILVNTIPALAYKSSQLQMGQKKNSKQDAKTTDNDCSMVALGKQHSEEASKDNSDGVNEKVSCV
human D2 receptor, sequence (P14416 whole entry): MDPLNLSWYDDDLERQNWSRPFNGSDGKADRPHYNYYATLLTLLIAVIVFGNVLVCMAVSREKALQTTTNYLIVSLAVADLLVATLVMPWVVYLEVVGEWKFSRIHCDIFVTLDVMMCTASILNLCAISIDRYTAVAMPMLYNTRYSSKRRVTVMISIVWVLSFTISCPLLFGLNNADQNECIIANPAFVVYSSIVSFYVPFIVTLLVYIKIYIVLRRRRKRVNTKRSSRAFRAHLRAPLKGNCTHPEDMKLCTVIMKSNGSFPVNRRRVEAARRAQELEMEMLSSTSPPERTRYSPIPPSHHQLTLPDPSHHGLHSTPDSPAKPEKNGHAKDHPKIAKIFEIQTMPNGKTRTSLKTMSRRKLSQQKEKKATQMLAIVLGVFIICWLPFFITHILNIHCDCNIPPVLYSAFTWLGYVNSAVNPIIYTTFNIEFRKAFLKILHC
T2 sequence (P08908 whole entry): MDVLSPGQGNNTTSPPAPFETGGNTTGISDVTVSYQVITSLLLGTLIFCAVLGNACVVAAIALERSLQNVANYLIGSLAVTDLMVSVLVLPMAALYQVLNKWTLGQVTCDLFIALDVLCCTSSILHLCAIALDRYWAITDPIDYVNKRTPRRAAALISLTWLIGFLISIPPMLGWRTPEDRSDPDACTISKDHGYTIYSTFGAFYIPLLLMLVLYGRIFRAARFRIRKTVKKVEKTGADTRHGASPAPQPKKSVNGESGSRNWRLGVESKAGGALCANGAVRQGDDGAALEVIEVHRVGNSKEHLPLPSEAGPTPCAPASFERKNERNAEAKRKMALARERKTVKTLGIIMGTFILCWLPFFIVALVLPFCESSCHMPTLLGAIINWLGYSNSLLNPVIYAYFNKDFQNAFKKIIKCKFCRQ

As for `O=c1c2cnccc2ccn1CCN1CCN(c2noc3ccccc23)CC1` [Example 116], the “Metabolic stability in human hepatic microsome” value (from here on “Metabolic stability”) in data set [1] turned out to be 0.1 mL/min/mg protein. In addition, the Ki was more than 10000 nM in data set [2], 26 nM in data set [3] and 128 nM in data set [7]. In data set [4], this molecule registered an EC50 of 882 nM. Further, in data set [4], the Emax at 10 µM was 60%. Also, the values for the IC50 in data set [5] (aequorin luminescence) and in data set [6] were 49.7 nM and 5300 nM, respectively.

With `Cc1ncc2c(n1)CCN(CCN1CCN(c3noc4ccccc34)CC1)C2=O` [Example 179], the “Metabolic stability” value in data set [1] was less than 0.05 mL/min/mg protein. Moreover, in data set [2], the inhibitory constant (Ki) was more than 10000 nM, the “D2 Ki/5-HT1A Ki” value was more than 35.3 and the “D2 Ki/5-HT2A Ki” value is given as more than 437.6. In addition, the affinity in data set [3] corresponds to a Ki of 22.9 nM. The molecule further returned an IC50 in data set [5] (aequorin luminescence) of 70.8 nM. Further, in data set [6], the “hERG inhibition IC50 (nmol/L)/5-HT1A Ki (nmol/L)” value is more than 35, the “hERG inhibition IC50 (nmol/L)/5-HT2A Ki (nmol/L)” value is more than 438 and the IC50 is more than 10000 nM. Further, the Ki in data set [7] amounted to 283 nM.

`Cc1nc2c(o1)CCCN(CCN1CCC(c3noc4ccccc34)CC1)C2=O` [Example 157]: in data set [1], the “Metabolic stability” value is on record as less than 0.05 mL/min/mg protein. For the same molecule, in data set [2], the inhibition constant (Ki) was 641 nM, the “D2 Ki/5-HT1A Ki” value was 302.1 and the “D2 Ki/5-HT2A Ki” value came out at 44.2. For the same molecule, the affinity in data set [3] corresponds to a Ki of 14.5 nM. In addition, in data set [4], the 50% effective concentration (EC50) is 52.7 nM and the Emax at 10 µM was 47%. This molecule also showed an IC50 in data set [5] (aequorin luminescence) of 115 nM. In addition, in data set [6], the “hERG inhibition IC50 (nmol/L)/5-HT1A Ki (nmol/L)” value is 754, the “hERG inhibition IC50 (nmol/L)/5-HT2A Ki (nmol/L)” value stood at 110 and the IC50 stood at 1600 nM. Further, in data set [7], the affinity corresponds to a Ki of 2.12 nM.

With `O=C1c2cnc(OC3COC3)cc2CCN1CCN1CCN(c2nsc3ccccc23)CC1` [Example 111, 2-{2-[4-(1,2-Benzoisothiazol-3-yl)piperazin-1-yl]ethyl}-6-[(oxetan-3-yl)oxy]-3,4-dihydro-2,7-naphthyridin-1(2H)-one], in data set [1], the “Metabolic stability” value was 0.254 mL/min/mg protein. In data set [2], the Ki was 1010 nM, the “D2 Ki/5-HT1A Ki” value is 1105 and the “D2 Ki/5-HT2A Ki” value was 530. The molecule further came in with a Ki in data set [3] of 1.9 nM. Also, in data set [4], the EC50 is 4.58 nM and the maximum response (Emax) at 10 µM stood at 51%. For the same molecule, 17 nM corresponded to half-maximal inhibition in data set [5] (IC50). In data set [6], the “hERG inhibition IC50 (nmol/L)/5-HT1A Ki (nmol/L)” value is listed as 2052, the “hERG inhibition IC50 (nmol/L)/5-HT2A Ki (nmol/L)” value came out at 984 and the IC50 came out at 1900 nM. Affinity in data set [7] was put at a Ki of 0.91 nM.

On to `Cc1nc2c(o1)C(=O)N(CCN1CCC(c3noc4ccccc34)CC1)CC2` [Example 35, 5-{2-[4-(1,2-Benzoisoxazol-3-yl)piperidin-1-yl]ethyl}-2-methyl-6,7-dihydro[1,3]oxazolo[5,4-c]pyridin-4(5H)-one], for which the “Metabolic stability” value in data set [1] is on record as less than 0.01 mL/min/mg protein. In data set [2], the Ki turned out to be 1290 nM, the “D2 Ki/5-HT1A Ki” value is recorded as 391 and the “D2 Ki/5-HT2A Ki” value was found to be 139. Moreover, the affinity in data set [3], expressed as Ki, was 9.3 nM. In data set [4], a half-maximal effect (EC50) was put at 72 nM and the Emax at 10 µM was 68%. In addition, the IC50 in data set [5] turned out to be 74 nM. In data set [6], the “hERG inhibition IC50 (nmol/L)/5-HT1A Ki (nmol/L)” value is 453, the “hERG inhibition IC50 (nmol/L)/5-HT2A Ki (nmol/L)” value turned out to be 161 and the IC50 stood at 1500 nM. In addition, affinity in data set [7] was put at a Ki of 3.3 nM.

Consider `Cn1ccc2c1CCCN(CCN1CCC(c3noc4ccccc34)C1)C2=O` (centres unmarked) [Example 175], for which the “Metabolic stability” value in data set [1] came out at 0.125 mL/min/mg protein. Besides, in data set [2], the affinity, expressed as Ki, was 3480 nM; the “D2 Ki/5-HT1A Ki” value came out at 195.2; the “D2 Ki/5-HT2A Ki” value is given as 251.4. In addition, the Ki in data set [3] is 13.8 nM. In data set [4], the EC50 stood at 667 nM and the Emax at 10 µM worked out at 36%. In data set [5] (aequorin luminescence), this molecule yielded an IC50 of 307 nM. For the same molecule, in data set [6], the “hERG inhibition IC50 (nmol/L)/5-HT1A Ki (nmol/L)” value is 197, the “hERG inhibition IC50 (nmol/L)/5-HT2A Ki (nmol/L)” value was 253 and the 50% inhibitory concentration (IC50) stood at 3500 nM. The molecule further had a Ki in data set [7] of 17.8 nM.

Regarding `Cn1ncc2c1C(=O)N(CCN1CCC(c3noc4ccccc34)CC1)CC2` [Example 96, 6-{2-[4-(1,2-Benzoisoxazol-3-yl)piperidin-1-yl]ethyl}-1-methyl-1,4,5,6-tetrahydro-7H-pyrazolo[3,4-c]pyridin-7-one], the “Metabolic stability” value in data set [1] amounted to 0.019 mL/min/mg protein. Further, in data set [2], the Ki stood at 103 nM, the “D2 Ki/5-HT1A Ki” value came out at 9 and the “D2 Ki/5-HT2A Ki” value worked out at 14. In data set [3], this molecule came in with a Ki of 7.25 nM. Also, in data set [4], the EC50 came out at 65.5 nM and the Emax at 10 µM came to 33%. Also, the IC50 in data set [5] amounted to 20 nM. In addition, in data set [6], the “hERG inhibition IC50 (nmol/L)/5-HT1A Ki (nmol/L)” value turned out to be 97, the “hERG inhibition IC50 (nmol/L)/5-HT2A Ki (nmol/L)” value amounted to 159 and the IC50 was 1200 nM. This molecule gave a Ki in data set [7] of 11.8 nM.

Regarding `Cc1cncc2c1CCN(CCN1CCN(c3noc4ccccc34)CC1)C2=O` [Example 137], the “Metabolic stability” value in data set [1] is less than 0.05 mL/min/mg protein. In data set [2], the affinity, expressed as Ki, was 1080 nM; the “D2 Ki/5-HT1A Ki” value stood at 5.8; the “D2 Ki/5-HT2A Ki” value is reported as 96.4. In data set [3], affinity was put at a Ki of 11.2 nM. For the same molecule, in data set [4], it took 4660 nM to reach a half-maximal effect (EC50) and the Emax at 10 µM was determined as 19%. Also, the IC50 in data set [5] (aequorin luminescence) was 2.4 nM. For the same molecule, in data set [6], the “hERG inhibition IC50 (nmol/L)/5-HT1A Ki (nmol/L)” value stood at 41, the “hERG inhibition IC50 (nmol/L)/5-HT2A Ki (nmol/L)” value amounted to 686 and the IC50 is 7700 nM. The molecule further had a Ki in data set [7] of 186 nM.

In the case of `Cn1ncc2c1CCN(CCN1CCN(c3noc4ccccc34)CC1)C2=O` [Example 131], the “Metabolic stability” value in data set [1] was less than 0.05 mL/min/mg protein. Also, the Ki in data set [2] was more than 10000 nM; in data set [3], 12 nM; in data set [7], 279 nM. This molecule also had an EC50 in data set [4] of 405 nM. Moreover, the Emax at 10 µM in data set [4] amounted to 48%. In addition, the IC50 in data set [5] (aequorin luminescence) was 9.53 nM; in data set [6], more than 3000 nM.

For `Cc1nc2c(o1)C(=O)N(CCN1CCC(c3noc4ccccc34)CC1)CCC2` [Example 154], in data set [1], the “Metabolic stability” value is reported as less than 0.05 mL/min/mg protein. In data set [2], the affinity corresponds to a Ki of 718 nM, the “D2 Ki/5-HT1A Ki” value was determined as 35.6 and the “D2 Ki/5-HT2A Ki” value is given as 54.9. This molecule showed a Ki in data set [3] of 13.1 nM. Moreover, in data set [4], the EC50 was determined as 45.1 nM and the maximum response (Emax) at 10 µM is 58%. In addition, in data set [5] (aequorin luminescence), the IC50 amounted to 316 nM. In data set [6], the “hERG inhibition IC50 (nmol/L)/5-HT1A Ki (nmol/L)” value is recorded as 35, the “hERG inhibition IC50 (nmol/L)/5-HT2A Ki (nmol/L)” value is reported as 54 and the IC50 turned out to be 700 nM. For the same molecule, affinity in data set [7] was put at a Ki of 20.2 nM.

Take `O=C1c2ncoc2CCN1CCN1CCC(c2noc3ccccc23)CC1` [Example 190, 5-{2-[4-(1,2-Benzoisoxazol-3-yl)piperidin-1-yl]ethyl}-6,7-dihydro[1,3]oxazolo[4,5-c]pyridin-4(5H)-one]: the “Metabolic stability” value in data set [1] is less than 0.05 mL/min/mg protein. Besides, in data set [2], the Ki worked out at 2460 nM, the “D2 Ki/5-HT1A Ki” value is given as 49.3 and the “D2 Ki/5-HT2A Ki” value is recorded as 47.9. Also, in data set [3], the inhibition constant (Ki) stood at 51.4 nM. Moreover, in data set [4], the EC50 turned out to be 7210 nM and the Emax at 10 µM was determined as 11%. In data set [5] (aequorin luminescence), this molecule came in with an IC50 of 237 nM. In data set [6], the “hERG inhibition IC50 (nmol/L)/5-HT1A Ki (nmol/L)” value worked out at 32, the “hERG inhibition IC50 (nmol/L)/5-HT2A Ki (nmol/L)” value is 31 and the IC50 is 1600 nM. Besides, the Ki in data set [7] came to 50 nM.
